Laboratory results published in patent US20210038547A1, “NEW USES AND APPLICATIONS OF DICARBOXYLIC ACIDS” (JEMYLL LIMITED, priority 2017, published 2021).

How the values were obtained:
oat = experiment: Hydroponic oat grown with C12 in the water medium: grain composition; conditions: 10 g C12/L of water (10% C12)
Description: (§1) Hydroponic barley and oat grass was growth in fodder sprouting chambers at 21.5 to 23.5° C., with humidity of 65±5% and water temperature between 20° and 22° C. Grains were soaked in water until fully saturated, then drained and placed in trays or troughs, to facilitate sprouting, for 5 to 8 days. The grains were kept moist during this period. Grains were initially washed with a sterilizing solution to help minimize the risk of mold. Grass were provided with […] from day 3. C12 (0.1% as acid, 14.9% as potassium salt, 60% as sodium salt, and 25% as calcium salt) was added to the water medium in different concentrations, varying from 0%, to 2.5%, 5%, 10%, 15% and 20%. We measured grain composition at 10 g C12 in 1 L of water.

barley = experiment: Hydroponic barley grown with C12 in the water medium: grain composition; conditions: 10 g C12/L of water (10% C12)
Description: as §1

[1] = tested on: Hy-Line Brown laying hens; experiment: Laying hens fed a standard diet or a diet enriched with C12 (10%): egg productivity, egg quality, yolk cholesterol; assay type: in vivo
Source text: Thirty Hy-Line Brown laying hens, 18 weeks of age, were free range-raised under natural light and dark cycle. The hens were divided into 2 groups and housed in different indoor pens (0.15 m^2/bird) equipped with feeders and drinkers, with access to open air runs (3 m^2/bird).
The diets were based on wheat and soybean meal with added dodecanedioic acid (C12) at 10% in the DAs diet, while they were free of dodecanedioic acid in the control diet. The diets were isocaloric and isonitrogenous containing 17.0% of crude protein (CP) and 2,680 kcal of metabolizable energy/kg of diet, in fact they were designed to meet or exceed the nutrient requirements for laying hens. The experimental diet was fed to the animals for 12 weeks. Feed and water were provided ad libitum throughout the entire trial.
Hens mortality or morbidity were recorded if occurred. Eggs were collected daily and egg production was calculated on per hen and per day basis. Eggs with any adhering manure were classified as dirty, and the percentage was then calculated.
Eggs were analyzed for interior and exterior physical quality, and were also examined for shell quality by specific gravity. Shell thickness (with shell membrane) of the eggs (10% of the daily egg produced) was measured by micrometer. Shell thickness was a mean value of measurements at 3 locations on the eggs (air cell; equator; and, sharp end). The breaking strength of untracked eggs was determined with a testing machine (model 1140, Instron Ltd., Bucks, UK). Egg components (albumen; yolk; and, shell) were measured by weekly breakouts on two eggs per replicate pen and expressed as percentage of egg weight.
Egg yolk color was scored using the 15-point scale (color scale from 15, dark orange to 1, light pale) of the DSM yolk color fan (DSM Nutritional Products Ltd., Basel, Switzerland).
The yolk cholesterol concentrations were determined by sampling weekly egg yolks (1 g) saponified with 20 ml of 33% ethanolic KOH in tightly-capped tubes placed in a 60° C. water bath for 1 hour. The mixture was then cooled in ice water, and 5 ml of distilled water was added. Cholesterol in unsaponifiable fractions was extracted twice with 5 ml of hexane. The resulting aliquot of hexane containing cholesterol was dried under nitrogen, re-dissolved in 5 ml of hexane, and injected into a gas chromatograph (Hewlett Packard, Palo Alto, Calif., Palo Alto, Calif., USA).
5 α-cholestane (Sigma-Aldrich) was used as an internal standard. A split inlet (using a split ratio of 100:1) was used to inject samples into a capillary column (HP-5, Agilent, Steven, Calif., USA; 30 m×0.53 mm×0.5 μm). Temperature conditions were as follows: […] oven temperature of 270° C. isothermal; detector temperature of 300° C.; and, inlet temperature of 210° C. The gas carrier was N2 kept at a constant flow rate of 1.0 ml/min.
Data were analyzed using the statistical package SPSS 13. Comparisons were made by the Mann Whitney U test since data were not normally distributed.

O=C(O)CCCCCCCCCCC(=O)O [C12, dodecanedioic acid]
Ash % (oat): 4.06 ± 0.59%
Crude Fibre % (oat): 23.40 ± 4.04%
Crude Protein % (oat): 18.70 ± 2.28%
Dry matter (%) (oat): 90.00 ± 5.70%
Starch % (oat): 31.80 ± 8.11%
Ash % (barley): 3.40 ± 0.48%
Crude Fibre % (barley): 4.42 ± 0.38%
Crude Protein % (barley): 16.20 ± 0.62%
Dry matter (%) (barley): 90.40 ± 1.14%
Starch % (barley): 44.40 ± 3.51%
Yolk color ([1]; 10% C12 enriched diet vs standard diet): lighter color of the yolk
Hen mortality or morbidity ([1]; 12 weeks of feeding): No hen mortality or morbidity was observed
Dirty eggs (%) ([1]; diet with 10% C12 for 12 weeks): 0.38 ± 0.14%
Egg mass (g/hen per day) ([1]; diet with 10% C12 for 12 weeks): 54.56 ± 5.66 g/hen per day
Egg-laying rate (%) ([1]; diet with 10% C12 for 12 weeks): 90.30 ± 4.99%
Cholesterol content ([1]; diet with 10% C12 for 12 weeks, egg yolk, gas chromatography, FIG. 3: per 100 g of egg, in mg/100 g egg): 87.00 ± 14.27
Shell thickness (mm × 10^−2) ([1]; diet with 10% C12 for 12 weeks, mean of 3 locations, with shell membrane): 0.38 ± 0.037 mm × 10^−2
content of C12 in a yolk ([1]; female, Hy-Line Brown, hen (chicken), in vivo, 12 weeks): in a yolk ranged between 0.35 and 2.1 mg.
